# Test results: US9278974B2, “Substituted pyrazolo[3,4-d]pyrimidine compounds, their preparation and use as sigma receptors ligands” (LABORATORIOS DEL DR. ESTEVE S.A., priority 2012, dated 2016)
# Where a name gives a salt, the structure may show the parent alone.
# Target: T1, sigma-1 receptor (Cavia porcellus, UniProt Q60492)
# T1 construct: Guinea pig brains were homogenized in 10 vols; (w/v) of Tris-HCl 50 mM 0.32 M sucrose, pH 7.4; from tissue; host or cells: guinea pig brain membranes
# Test: Sigma-1 receptor binding assay, [3H]-(+)-pentazocine, guinea pig brain membranes
# Conditions: radioligand [3H]-(+)-pentazocine 5.0 nM, 150 min at 37° C., nonspecific binding with 1 μM haloperidol
# Protocol: Brain membrane preparation and binding assays for the […] were performed as described (DeHaven-Hudkins, D. L., L. C. Fleissner, and F. Y. Ford-Rice, 1992, Characterization of the binding of [^3H](+)pentazocine to α recognition sites in guinea pig brain, Eur. J. Pharmacol. 227, 371-378) with some modifications. Guinea pig brains were homogenized in 10 vols. (w/v) of Tris-HCl 50 mM 0.32 M sucrose, pH 7.4, with a Kinematica Polytron PT 3000 at 15000 r.p.m. for 30 s. The homogenate was centrifuged at 1000 g for 10 min at 4° C. and the supernatants collected and centrifuged again at 48000 g for 15 min at 4° C. The pellet was resuspended in 10 volumes of Tris-HCl buffer (50 mM, pH 7.4), incubated at 37° C. for 30 min, and centrifuged at 48000 g for 20 min at 4° C. Following this, the pellet was re-suspended in fresh Tris-HCl buffer (50 mM, pH 7.4) and stored on ice until use.
# The radioligand used was [^3H]-(+)-pentazocine at 5.0 nM and the final volume was 200 μl. The incubation was initiated with the addition of 100 μl of membrane at a final tissue concentration of approximately 5 mg tissue net weight/mL and the incubation time was 150 m. at 37° C. After incubation, the membranes were collected onto pretreated glass fiber filterplate (MultiScreen-FC, Millipore), with polyethylenimine 0.1%. The filters were washed two times with 200 μl of washing buffer (50 mM Tris Cl, pH=7.4) and then 25 μl of Ecoscint H liquid scintillation cocktail were added. Microplates were allowed to set for several hours and then quantified by liquid scintillation spectrophotometry (1450 Microbeta, Wallac). Nonspecific binding was determined with 1 μM haloperidol.
# T1 sequence (Q60492 whole entry): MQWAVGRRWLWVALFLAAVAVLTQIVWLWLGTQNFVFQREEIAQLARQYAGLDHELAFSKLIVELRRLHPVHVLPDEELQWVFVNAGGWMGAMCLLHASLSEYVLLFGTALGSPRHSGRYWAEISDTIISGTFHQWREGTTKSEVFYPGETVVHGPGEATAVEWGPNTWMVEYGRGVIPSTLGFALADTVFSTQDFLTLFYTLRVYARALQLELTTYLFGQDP
row,SMILES,Ki [nM]
1,"Cn1nc(C(F)(F)F)cc1-c1ncnc2c1cnn2CCN1CCCCC1 [Example 16, 4-(1-methyl-3-(trifluoromethyl)-1H-pyrazol-5-yl)-1-(2-(piperidin-1-yl)ethyl)-1H-pyrazolo[3,4-d]pyrimidine]",137
2,"Cc1ccc(C)c(-c2ncnc3c2cnn3CCN2CCCCC2)c1 [Example 26, 4-(2,5-dimethylphenyl)-1-(2-(piperidin-1-yl)ethyl)-1H-pyrazolo[3,4-d]pyrimidine]",55.4
3,"Cn1cccc1-c1ncnc2c1cnn2CCN1CCCCC1 [Example 27, 4-(1-methyl-1H-pyrrol-2-yl)-1-(2-(piperidin-1-yl)ethyl)-1H-pyrazolo[3,4-d]pyrimidine]",31.5
4,"Fc1ccc(-c2ncnc3c2cnn3CCN2CCCCC2)c(C(F)(F)F)c1 [Example 34, 4-(4-fluoro-2-(trifluoromethyl)phenyl)-1-(2-(piperidin-1-yl)ethyl)-1H-pyrazolo[3,4-d]pyrimidine]",57
5,"Clc1ccccc1-c1ncnc2c1cnn2CCN1CCCCC1 [Example 35, 4-(2-chlorophenyl)-1-(2-(piperidin-1-yl)ethyl)-1H-pyrazolo[3,4-d]pyrimidine]",75.7
6,"c1nc(-c2cnsc2)c2cnn(CCN3CCCCC3)c2n1 [Example 36, 4-(1-(2-(piperidin-1-yl)ethyl)-1H-pyrazolo[3,4-d]pyrimidin-4-yl)isothiazole]",475
7,"Fc1ccc(-c2ncnc3c2cnn3CCN2CCCCC2)c(Cl)c1 [Example 42, 4-(2-chloro-4-fluorophenyl)-1-(2-(piperidin-1-yl)ethyl)-1H-pyrazolo[3,4-d]pyrimidine]",27
8,"COc1ncccc1-c1ncnc2c1cnn2CCN1CCCCC1 [Example 10, 4-(2-methoxypyridin-3-yl)-1-(2-(piperidin-1-yl)ethyl)-1H-pyrazolo[3,4-d]pyrimidine]",112
9,"Cc1ccccc1-c1ncnc2c1cnn2CCN1CCCCC1 [Example 2, 1-(2-(piperidin-1-yl)ethyl)-4-o-tolyl-1H-pyrazolo[3,4-d]pyrimidine]",73.8
10,"Fc1ccc(-c2ncnc3c2cnn3CCN2CCCCC2)cc1 [Example 14, 4-(4-fluorophenyl)-1-(2-(piperidin-1-yl)ethyl)-1H-pyrazolo[3,4-d]pyrimidine]",95.4
11,"Clc1ccc(-c2ncnc3c2cnn3CCN2CCCCC2)cc1 [Example 21, 4-(4-chlorophenyl)-1-(2-(piperidin-1-yl)ethyl)-1H-pyrazolo[3,4-d]pyrimidine]",42.6
12,"CN(CCn1ncc2c(-c3ccccc3Cl)ncnc21)Cc1ccc(F)cc1 [Example 47, 2-(4-(2-chlorophenyl)-1H-pyrazolo[3,4-d]pyrimidin-1-yl)-N-(4-fluorobenzyl)-N-methylethanamine]",76.6
13,"COc1cc(F)ccc1-c1ncnc2c1cnn2CCN1CCCCC1 [Example 28, 4-(4-fluoro-2-methoxyphenyl)-1-(2-(piperidin-1-yl)ethyl)-1H-pyrazolo[3,4-d]pyrimidine]",39.2
14,"COc1ncccc1-c1ncnc2c1cnn2CCN1CCCCC1 [Example 11, 4-(2-methoxypyridin-3-yl)-1-(2-(piperidin-1-yl)ethyl)-1H-pyrazolo[3,4-d]pyrimidine (L)-tartrate]",151
15,"Cc1cncc(-c2ncnc3c2cnn3CCN2CCCCC2)c1 [Example 18, 4-(5-methylpyridin-3-yl)-1-(2-(piperidin-1-yl)ethyl)-1H-pyrazolo[3,4-d]pyrimidine]",447
16,"Clc1ccc(-c2ncnc3c2cnn3CCN2CCCCC2)s1 [Example 20, 4-(5-chlorothiophen-2-yl)-1-(2-(piperidin-1-yl)ethyl)-1H-pyrazolo[3,4-d]pyrimidine]",35
17,"Cc1cc(F)ccc1-c1ncnc2c1cnn2CCN1CCCCC1 [Example 29, 4-(4-fluoro-2-methylphenyl)-1-(2-(piperidin-1-yl)ethyl)-1H-pyrazolo[3,4-d]pyrimidine]",48.4
18,"Fc1ccc(-c2ncnc3c2cnn3CCN2CCC(F)(F)CC2)c(Cl)c1 [Example 44, 4-(2-chloro-4-fluorophenyl)-1-(2-(4,4-difluoropiperidin-1-yl)ethyl)-1H-pyrazolo[3,4-d]pyrimidine]",318
19,"FC(F)(F)c1ccccc1-c1ncnc2c1cnn2CCN1CCCCC1 [Example 38, 1-(2-(piperidin-1-yl)ethyl)-4-(2-(trifluoromethyl)phenyl)-1H-pyrazolo[3,4-d]pyrimidine]",125
20,"Fc1ccc(-c2ncnc3c2cnn3CCN2CCCCC2)c(F)c1 [Example 39, 4-(2,4-difluorophenyl)-1-(2-(piperidin-1-yl)ethyl)-1H-pyrazolo[3,4-d]pyrimidine]",81.6
21,"CN(CCn1ncc2c(-c3ccnn3C)ncnc21)Cc1ccc(F)cc1 [Example 48, N-(4-fluorobenzyl)-N-methyl-2-(4-(1-methyl-1H-pyrazol-5-yl)-1H-pyrazolo[3,4-d]pyrimidin-1-yl)ethanamine]",34.1
22,"CCOc1ccccc1-c1ncnc2c1cnn2CCN1CCCCC1 [Example 13, 4-(2-ethoxyphenyl)-1-(2-(piperidin-1-yl)ethyl)-1H-pyrazolo[3,4-d]pyrimidine hydrochloride]",300
23,"CN(CCn1ncc2c(-c3ccc(F)cc3Cl)ncnc21)Cc1ccc(F)cc1 [Example 49, 2-(4-(2-chloro-4-fluorophenyl)-1H-pyrazolo[3,4-d]pyrimidin-1-yl)-N-(4-fluorobenzyl)-N-methylethanamine]",61.7
24,"Cc1noc(C)c1-c1ncnc2c1cnn2CCN1CCCCC1 [Example 6, 3,5-dimethyl-4-(1-(2-(piperidin-1-yl)ethyl)-1H-pyrazolo[3,4-d]pyrimidin-4-yl)isoxazole hydrochloride]",72.4
25,"Fc1cc(Cl)ccc1-c1ncnc2c1cnn2CCN1CCCCC1 [Example 46, 4-(4-chloro-2-fluorophenyl)-1-(2-(piperidin-1-yl)ethyl)-1H-pyrazolo[3,4-d]pyrimidine]",112
26,"Cc1cccc(-c2ncnc3c2cnn3CCN2CCCCC2)c1 [Example 3, 1-(2-(piperidin-1-yl)ethyl)-4-m-tolyl-1H-pyrazolo[3,4-d]pyrimidine hydrochloride]",82.5
27,"Cc1ccc(Cl)c(-c2ncnc3c2cnn3CCN2CCCCC2)c1 [Example 25, 4-(2-chloro-5-methylphenyl)-1-(2-(piperidin-1-yl)ethyl)-1H-pyrazolo[3,4-d]pyrimidine]",31.2
28,"c1ccc(-c2ncnc3c2cnn3CCN2CCCCC2)cc1 [Example 1, 4-phenyl-1-(2-(piperidin-1-yl)ethyl)-1H-pyrazolo[3,4-d]pyrimidine]",99.6
